The source of these data is patent US7638505B2, “Organophosphoric derivatives useful as anti-parasitic agents” (priority 2005, dated 2009).

Read-outs that look alike come from different tables or passages of the source.

One may read the IC50 as the concentration that inhibits the measured activity by half.

The subject of series [1] is Plasmodium falciparum strain Dd2. To be noted: P. falciparum Dd2, WO 2005/048715; cited from earlier work.
The test system is the same in series [2]. Put plainly: in vitro anti-malarial activity, [3H]hypoxanthine incorporation, strain Dd2. To be noted: for activity in the Dd2 cell line with respect to the reference compounds fosmidomycin and FR900098: same conditions, similar experimental setup. It is filed as cell-based. The procedure: (§1) The in vitro anti-malarial activity of some of the compounds prepared in example 1 was determined as follows. Intraerythrocytic stages of the Plasmodium falciparum strains 3D7 and Dd2 were respectively incubated with serial dilutions of the relevant compounds and the viability of the parasites was assessed by their ability to incorporate [^3H]hypoxanthine into DNA. Inhibition results were expressed as IC50.

In series [3] the test system is Plasmodium falciparum strain 3D7. Put plainly: in vitro anti-malarial activity, [3H]hypoxanthine incorporation, strain 3D7. In kind it is cell-based. To be noted: P. falciparum strain 3D7, intraerythrocytic stages. The procedure: as §1
The test system of series [4] is acute, uncomplicated Plasmodium falciparum malaria. To be noted: clinical trials, Gabon and Thailand; cited from earlier work.
For series [5] the following is noted: in vivo; cited from earlier work.
Another series has as its system Plasmodium vinckei. To be noted: cited from earlier work.
The subject of a further series is Plasmodium falciparum. To be noted: cited from earlier work.
The mark [6] stands for this setting: Plasmodium falciparum, DD2, read-out: IC50 (μM) Dd2.

Regarding `O=CN(O)CCC(c1ccccc1)P(=O)(O)O.OCCNCCO` (stereo not drawn) [α-phenyl-fosmidomycin diethanolammonium salt], in series [1], the “IC50 value relative to fosmidomycin (times less)” value is recorded as 4.5 times.
On to `CC(=O)N(O)CCC(c1ccccc1)P(=O)(O)O.OCCNCCO` (stereo not drawn) [α-phenyl-FR900098 diethanolammonium salt], for which, in series [1], the “IC50 value relative to FR900098” value was “higher than FR900098”.
Take `COc1ccc(C(CCN(O)C=O)P(=O)(O)O)cc1` (centres unmarked) [Compound 1c, 3-(N-hydroxyformamido)-1-(4-methoxyphenyl)propylphosphonic acid]: the figures for the IC50 in series [2] (setting [6]) and in series [3] (Plasmodium falciparum) were 0.2 µM and 0.36 µM, respectively.
Consider `O=CN(O)CCC(c1ccc(Cl)c(Cl)c1)P(=O)(O)O` (centres unmarked) [Compound 1e, 3-(N-hydroxyformamido)-1-(3,4-dichlorophenyl)propylphosphonic acid], for which the IC50 in series [2] (Plasmodium falciparum, P. falciparum strain Dd2, intraerythrocytic stages, read-out: IC50 (μM) Dd2) was 0.028 µM; in series [3] (Plasmodium falciparum), 0.09 µM. For the same compound, the “in vitro antimalarial activity relative to fosmidomycin” value in series [2] (inhibition of parasite growth, strain not named in the sentence (table: Dd2 and 3D7)) is “twelve-fold more active than fosmidomycin”. Further, the “in vitro antimalarial activity relative to FR900098” value in series [2] (strain not named in the sentence (table: Dd2 and 3D7)) is recorded as “exceeds the activity of FR900098”.
On to `O=CN(O)CCCP(=O)(O)O` [fosmidomycin], for which the IC50 in series [2] (setting [6]) turned out to be 0.36 µM. In addition, the IC50 in series [3] (Plasmodium falciparum) was determined as 1.1 µM. The “treatment of patients suffering from acute, uncomplicated Plasmodium falciparum malaria” value in series [4] is on record as “proved to be efficient”. Moreover, in series [5], the plasma half-life result was “short” and the resorption rate result is reported as “moderate”.
Turning to `CC(=O)N(O)CCC(c1ccc(C#N)cc1)P(=O)(O)O.N.N` (centres unmarked) [Compound 104b, Bisammonium 3-[N-acetyl. N-(hydroxy)amino]-1-(4-cyanophenyl)-propylphosphonate], the “activity in the Dd2 cell line with respect to the reference compounds fosmidomycin and FR900098” value in series [2] is recorded as “substantial higher activity”.
In the case of `CC(=O)N(O)CCC(c1ccc(Cl)cc1)P(=O)(O)O` (centres unmarked) [Compound 2d, 3-(N-hydroxyacetamido)-1-(4-chlorophenyl)propylphosphonic acid], the IC50 is 0.095 µM in series [2] (setting [6]) and 0.35 µM in series [3] (Plasmodium falciparum).
Regarding `N#Cc1ccc(C(CCN(O)C=O)P(=O)(O)O)cc1` (centres unmarked) [Compound 105, 3-[N-formyl,N-(hydroxy)amino]-1-(4-cyanophenyl)-propylphosphonic acid], the “activity in the Dd2 cell line with respect to the reference compounds fosmidomycin and FR900098” value in series [2] is given as “substantial higher activity”.
As for `CC(=O)N(O)CCCP(=O)(O)O` [FR900098, reference compound], the “activity relative to fosmidomycin in Plasmodium vinckei mouse model” value with Plasmodium vinckei is “approximately twice more active than fosmidomycin”. In addition, in the series on Plasmodium falciparum, the “activity relative to fosmidomycin against Plasmodium falciparum in vitro” value is “approximately twice more active than fosmidomycin”. Also, the IC50 in series [2] (P. falciparum strain Dd2, intraerythrocytic stages, read-out: IC50 (μM) Dd2) worked out at 0.18 µM; in series [3], 0.32 µM.
Turning to `CC(=O)N(O)CCC(c1ccc(Cl)c(Cl)c1)P(=O)(O)O` (centres unmarked) [Compound 2e, 3-(N-hydroxyacetamido)-1-(3,4-dichlorophenyl)propylphosphonic acid], the IC50 in series [2] (setting [6]) amounted to 0.09 µM; in series [3] (Plasmodium falciparum), 0.25 µM.
